# Results published in patent publication US8034796B2, “Glucosamine and glucosamine/anti-inflammatory mutual prodrugs, compositions, and methods” (The University of Georgia Research Foundation, Inc., priority 2004, dated 2011).
# Like-named read-outs stand apart in the source and are kept apart here.
# Columns and labels:
# [1] = cited from earlier work
# [2] = literature; cited from earlier work
# [3] = cited from earlier work; remark: listed apart in the source
# [4] = assay type: in vitro ADME, snake
# Description: In vitro transport (diffusion) was evaluated by Franz cell diffusion experiments using shed snakeskin. Shed snakeskin is widely recognized as a sufficient model membrane to human skin for preliminary permeability studies due to the similarity in its composition to the human stratum corneum.
# The shed snakeskin was hydrated in 0.1% aqueous sodium azide solution for 48 hours at room temperature. The skins were mounted to three Franz receptor cells filled with 0.1 M pH7 phosphate buffer. The receptor solution was maintained at 37° C. and stirred with a magnetic stirrer. The donor cells were clamped to each receptor cell, with the skin mounted between the receptor and donor cells, and the donor cells were filled with 100 milligrams (mg) each of glucosamine HCl (e.g., cell 1), N-acetyl glucosamine (e.g., cell 2), and glucosamine pentaacetyl (e.g., cell 3) in a 1 milliliter (ml) DMSO solution. The skin surface exposed to diffusion was 2.54 cm^2 (1.8 cm diameter) and the receptor cell volume was 6 cm^3. The system was allowed to equilibrate for two hours before samples were taken.
# Twenty microliter (μl) samples of receptor solution were taken at 5, 10, 20, 40, 80, 160, and 240 minute intervals and replaced with fresh buffer. A ten μl aliquot of each sample was analyzed by high performance liquid chromatography with pulsed electrochemical detection.
# [5] = cited from earlier work; remark: listed apart in the source
# [6] = Oil/water partition coefficient, n-hexane/phosphate buffer; assay type: physicochemical; settings: 37° C., 24 hours
# Description: The oil/water partition coefficient for NAG was determined using n-hexane/phosphate buffer (pH 5.5 6, 6.73, and 7.4, 0.1 M) and n-hexane/water (Bemacki et al., J. Supramolecular Structure, 7:235-250 (1977)). In each case 5 ml of n-hexane was mixed with aqueous solutions containing NAG and shaken at 37° C. for 24 hours. The mixture was afterwards centrifuged and the organic and aqueous phases separated. The NAG concentration in the filtrates was determined by HPAE-PAD after the appropriate dilution.
# [7] = Solubility measurements of NAG; assay type: physicochemical
# Description: The solutions were centrifuged for 5 min at 9000 rev/min and the supernatant filtered with cellulose acetate membrane filters (0.45 μm pore size) (Dionex, Sunnyvale Calif.). The NAG concentration in each filtrate was determined by HPAE-PAD after the appropriate dilution.
# [8] = In-vitro membrane permeation of NAG from lecithin suspensions and pluronic organo-gel formulations across shed snakeskin; assay type: in vitro ADME, snake
# Description: Twenty percent poloxamer 407 (PLURONIC F127; Polyethylene-Polypropylene Glycol) gels were made by standard methods e.g. dissolving the poloxamer into cold water under refrigeration for 24 hours to produce the pluronic gel phase. NAG was incorporated into the pluronic gel phase. The final formulations were prepared via the emulsification of the select organic phase with the pluronic gel phase using luer-lock connected syringes.
# Shed snakeskins were used as the model membrane for these permeation studies using the NAG semi-solid gel formulations. The skins were hydrated in 0.1% aqueous sodium azide solution at room temperature for 48 hrs. Franz-cell diffusions experiments were carried out. In general the receptor cell was filled with a 7.4 pH 0.1 M phosphate buffer. The receptor solution was maintained at 37° C. and stirred with a magnetic stirrer. The snakeskins were mounted between the receptor and donor cells. The surface exposed to diffusion was 2.54 cm^2 (diameter 1.8 cm) and the receptor cell volume was 6 cm^3. The donor cell was covered with plastic film. The system was allowed to equilibrate at 37° C. for two hours before each experiment. The donor cells were filled with a 5 ml of the semisolid NAG pluronic-organo-gel formulation. Samples (N=3) were taken at intervals over a 48-hour period, 200-μl samples of receptor solutions were taken and replaced with fresh buffer; experiments were conducted in triplicate. The amounts of NAG that permeated through the snakeskin were determined by HPAE-PAD.
# Steady state flux (Jss) for NAG (mg/cm^2/h) was calculated from its increasing amount in the receptor medium (Bach et al., Eur. J. Pharm. and Biopharm., 46:1-13 (1998)). NAG's permeability coefficient (kp) in cm/h was calculated from known physiochemical parameters (Hadgraft et al., “Feasibility Assessment in Topical and Transdermal Delivery: Mathematical Models and In Vitro Studies,” in Transdermal Drug Delivery, 2nd Ed. Marcel Dekker, Inc., pages 1-23 (2003)). Lag time (tlag) was determined graphically from the cumulative amount of drug released per unit area (mg/cm^2) versus time (h) plots. A square root of time (t^1/2) versus cumulative amount of drug released per unit area (mg/cm^2) was obtained to monitor NAG in vitro release rate (mg/cm^2) (Guidance for Industry: SUPAC-SS Semisolid Dosage Forms. Scale-up and Postapproval Changes Chemistry, Manufacturing, and Control; In Vitro Release Testing and In Vivo Bioequivalence Documentation. US Department of Health and Human Services, Food and Drug Administration, May 1997).
# [9] = In-vitro membrane permeation of NAG through shed snakeskin (Franz cell; enhancers, DMSO, ethanol/buffer); assay type: in vitro ADME, snake
# Excerpt: Shed snakeskins were used as a model membrane for permeation studies using the NAG suspensions in known membrane permeation enhancers; ethanol, oleic acid, isopropyl myristate, and isopropyl palmitate; saturated solutions of NAG in water and in phosphate buffer; as well as in a saturated DMSO solution and phosphate buffer (pH 5.5) containing ethanol at 2%, 5%, 10%, 25%, and 50% solutions.
# The skins were hydrated in 0.1% aqueous sodium azide solution at room temperature for 48 hrs. Franz-cell diffusions experiments were carried out. In general the receptor cell was filled with 7.4 pH 0.1 M phosphate buffer and the donor cell filled with a solution or suspension. For the phosphate buffer (pH 5.5) containing ethanol at 2%, 5%, 10%, 25%, and 50% solutions in the donor phase, the receptor phase consisted of phosphate buffer (pH 5.5, 0.1 M). The receptor solution was maintained at 37° C. and stirred with a magnetic stirrer.
# The snake skins were mounted between the receptor and donor cells. The surface exposed to diffusion was 2.54 cm^2 (diameter 1.8 cm) and the receptor cell volume was 6 cm^3. The donor cell was covered with plastic film. The system was allowed to equilibrate at 37° C. for two hours before each experiment. To the donor cells, 5 ml of the NAG-enhancer suspension or solution was added. Samples were taken at intervals over a 24-hour period, 200-μl samples of receptor solutions were taken and replaced with fresh buffer; experiments were conducted in triplicate. The amounts of NAG that permeated through the snakeskin were determined by HPAE-PAD.
# Steady state flux (Jss) for NAG (mg/cm^2/h) was calculated from its increasing amount in the receptor medium (Bach et al., Eur. J. Pharm. Biopharm, 46:1-13 (1998)). NAG's permeability coefficient (kp) in cm/h was calculated from known physiochemical parameters, (Hadgraft et al., “Feasibility Assessment in Topical and Transdermal Delivery: Mathematical Models and In Vitro Studies,” in Transdermal Drug Delivery. 2nd Ed. Marcel Dekker, Inc., pages 1-23 (2003)). Lag time (tlag) was determined graphically from the cumulative amount of drug released per unit area (mg/cm^2) versus time plots. A square root of time (t^1/2) versus cumulative amount of drug released per unit area (mg/cm^2) was obtained to monitor NAG in vitro release rate (mg/cm^2), (Guidance for Industry: SUPAC-SS Semisolid Dosage Forms. Scale-up and Postapproval Changes Chemistry, Manufacturing, and Control; In Vitro Release Testing and In Vivo Bioequivalence Documentation. US Department of Health and Human Services, Food and Drug Administration, Center for. Drug Evaluation and Research, May 1997).
# [10] = lecithin-vitamin E (1:1) suspension
# [11] = phosphate buffer (pH 5.5) with 2% ethanol
# [12] = phosphate buffer (pH 5.5) with 5% ethanol
# [13] = phosphate buffer (pH 5.5) with 10% ethanol
# [14] = phosphate buffer (pH 5.5) with 25% ethanol
# [15] = phosphate buffer (pH 5.5) with 50% ethanol
# [16] = saturated DMSO donor, pH 7.4 phosphate buffer receptor
compound,measurement,setting,value
N[C@H]1C(O)O[C@H](CO)[C@@H](O)[C@@H]1O (stereo partly shown) [glucosamine],bioavailability,[1]; oral administration,12-13%
same,oral dose absorbed and excreted,[1]; oral dose,approximately 87%
same,oral dose reaching osteoarthritic joints,[1]; oral dose,< 1%
same,oral dose widely distributed in the body,[1]; oral dose,< 13%
CC(C)Cc1ccc(C(C)C(=O)O)cc1 (stereo not shown) [ibuprofen],transport across shed snake skin,[2],transported
CN1CC[C@]23c4c5ccc(O)c4O[C@H]2C(=O)CC[C@@]3(O)[C@H]1C5 [oxymorphone],octanol-water partition coefficient,[3]; pH 7.4,0.0
CCC(NC(C)C)C(O)c1ccc(O)c2[nH]c(=O)ccc12 (stereo not shown) [procaterol],octanol-water partition coefficient,[3]; pH 7.7,−0.37
"Cl.N[C@H]1C(O)O[C@H](CO)[C@@H](O)[C@@H]1O (stereo partly shown) [glucosamine HCl, Glucosamine HCl, reference compound]",transport across shed snake skin,[4],not transported
"CC(=O)N[C@H]1C(O)O[C@H](CO)[C@@H](O)[C@@H]1O (stereo partly drawn) [NAG, N-acetyl-D-glucosamine]",pKa,[5],6.73
same,partition coefficient n-hexane/pH 5.5 buffer,[6],0.252
same,partition coefficient n-hexane/pH 6.0 buffer,[6],0.194
same,partition coefficient n-hexane/pH 6.73 buffer,[6],0.092
same,partition coefficient n-hexane/pH 7.4 buffer,[6],0.091
same,octanol-water partition coefficient,[3]; pH 7.4,0.017
same,transport across shed snake skin,[4],highly transported
same,transport (receptor cell volume analyzed),"[4]; snake, 100 mg/ml, pH 7",over 50%
same,solubility,[7]; ethanol,insignificantly soluble
same,solubility,[7]; phosphate buffer,highly soluble
same,transport in aqueous only vehicles,[8]; experiments not reported here,not transported
same,NAG transport from suspensions,[8]; lecithin-isopropyl palmitate and vitamin E suspensions (100 mg/ml),Negligible (below the limit of detection)
same,Release rate,[8]; [10],13.71 μg/cm^2
same,steady state flux Jss,[8]; [10],4.23 μg/cm^2/h
same,Papp,"[8]; snake, pH 7.4, lecithin-vitamin E (1:1) suspension, read-out: permeability coefficient kp (converted)",1.39 ×10⁻⁶ cm/s
same,NAG transport from suspensions of membrane permeability enhancers,"[9]; ethanol, oleic acid, isopropyl myristate and isopropyl palmitate suspensions",Negligible
same,In Vitro release rate,[9]; [11],286.03 μg/cm^2
same,Jss,[9]; [11],112.61 mg/cm^2/h
same,In Vitro release rate,[9]; [12],303.61 μg/cm^2
same,Jss,[9]; [12],119.53 mg/cm^2/h
same,In Vitro release rate,[9]; [13],537.49 μg/cm^2
same,Jss,[9]; [13],211.61 mg/cm^2/h
same,In Vitro release rate,[9]; [14],523.06 μg/cm^2
same,Jss,[9]; [14],205.93 mg/cm^2/h
same,In Vitro release rate,[9]; [15],198.02 μg/cm^2
same,Jss,[9]; [15],77.96 mg/cm^2/h
same,In Vitro release rate,[9]; [16],186.64 mg/cm^2
same,Jss,[9]; [16],73.48 mg/cm^2/h
same,lag time,[9]; saturated DMSO solution,no lag time
same,in vitro release rate,"[9]; saturated DMSO solution, FIG. 13",73.48 μg/cm^2
same,Papp,"[9]; snake, calculated from known physiochemical parameters, read-out: permeability coefficient kp (converted)",203 ×10⁻⁶ cm/s
same,permeation from aqueous solutions,"[9]; water or phosphate buffer solutions (pH 5.5, 6.0, 6.73, and 7.4; 0.1 M)",No permeation
